Experimental data as given in US11912663B2, “Multi-targeted tyrosine kinase inhibitors and their pharmaceutical uses” (Shanghai AB PharmaTech Ltd., priority 2021, dated 2024).

Experiments:
[1] = system: kidney cancer cell line (Caki-1); test: tumor cell proliferation inhibition (CTG), kidney cancer cell line; format: cell-based; conditions: Homo sapiens, 72 hours, read-out: Caki-1 (renal cancer) IC50
[2] = system: lung cancer cell line (A549); test: tumor cell proliferation inhibition (CTG), lung cancer cell line; format: cell-based; conditions: Homo sapiens, 72 hours
[3] = system: pancreatic cancer cell line (BXPC3); test: tumor cell proliferation inhibition (CTG), pancreatic cancer cell line; format: cell-based; conditions: Homo sapiens, BXPC-3, 72 hours
[4] = MTD toxicity test in rats; format: in vivo; conditions: rat, in vivo
hERG potassium channels = hERG potassium channels (Homo sapiens (Human), UniProt Q12809); test: in vitro inhibitory effect of hERG, whole-cell patch clamp; format: cell-based; conditions: whole-cell recording, room temperature
hERG potassium channels, sequence (Q12809 whole entry): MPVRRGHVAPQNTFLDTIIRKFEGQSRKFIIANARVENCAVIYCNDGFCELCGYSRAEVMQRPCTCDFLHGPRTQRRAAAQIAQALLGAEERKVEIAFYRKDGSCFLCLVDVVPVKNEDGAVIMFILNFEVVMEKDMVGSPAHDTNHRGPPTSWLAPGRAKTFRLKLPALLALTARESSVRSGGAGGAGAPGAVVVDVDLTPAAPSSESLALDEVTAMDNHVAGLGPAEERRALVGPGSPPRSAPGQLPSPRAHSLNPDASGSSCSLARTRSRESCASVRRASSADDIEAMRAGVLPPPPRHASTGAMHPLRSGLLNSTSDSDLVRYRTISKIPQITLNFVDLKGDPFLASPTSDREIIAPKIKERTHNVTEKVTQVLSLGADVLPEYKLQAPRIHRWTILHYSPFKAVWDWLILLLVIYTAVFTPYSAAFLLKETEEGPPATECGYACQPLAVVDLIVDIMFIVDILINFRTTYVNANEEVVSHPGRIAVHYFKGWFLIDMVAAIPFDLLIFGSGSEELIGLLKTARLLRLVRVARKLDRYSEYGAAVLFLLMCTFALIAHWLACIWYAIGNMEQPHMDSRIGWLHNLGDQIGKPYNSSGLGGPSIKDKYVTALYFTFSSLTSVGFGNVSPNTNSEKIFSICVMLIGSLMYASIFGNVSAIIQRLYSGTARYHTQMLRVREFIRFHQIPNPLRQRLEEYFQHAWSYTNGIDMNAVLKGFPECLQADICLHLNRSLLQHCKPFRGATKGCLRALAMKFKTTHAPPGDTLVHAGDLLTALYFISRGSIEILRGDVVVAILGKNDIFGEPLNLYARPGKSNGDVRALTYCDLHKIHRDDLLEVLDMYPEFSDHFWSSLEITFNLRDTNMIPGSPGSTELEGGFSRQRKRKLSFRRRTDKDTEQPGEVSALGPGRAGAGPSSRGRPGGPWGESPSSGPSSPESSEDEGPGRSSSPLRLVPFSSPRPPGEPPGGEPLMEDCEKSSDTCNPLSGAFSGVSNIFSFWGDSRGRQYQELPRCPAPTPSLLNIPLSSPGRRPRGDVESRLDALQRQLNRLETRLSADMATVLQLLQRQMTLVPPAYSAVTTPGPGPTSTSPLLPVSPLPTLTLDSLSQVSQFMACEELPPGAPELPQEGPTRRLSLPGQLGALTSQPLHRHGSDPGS

| Compound | IC50 [1] [µM] | IC50 [2] [µM] | IC50 [3] [µM] | MTD at 14 days ([4]; 150 mg/kg, in rats, read-out: MTD toxicity dose) [mg/kg] | MTD ([4]; toxicity study for MTD, species not stated) [mg/kg] | IC50 (hERG potassium channels) [µM] |
| --- | --- | --- | --- | --- | --- | --- |
| CNC(=O)c1cc2c(Oc3c(F)cc(NC(=O)NC4CC4)c(Cl)c3F)ccnc2cc1OC [IIIb-01] | > 5 | > 5 | > 10 | > 150 | 300 | > 30 |
| COc1cc2nccc(Oc3c(F)cc(NC(=O)NC4CC4)c(Cl)c3F)c2cc1C#N [IIIb-29] | > 5 | > 5 | > 10 |  |  |  |
| COc1cc2nccc(Oc3c(F)cc(NC(=O)NC4CC4)c(Cl)c3OC)c2cc1C#N [IIIb-30] | > 5 | > 5 | > 10 |  |  |  |
| COc1cc2nccc(Oc3c(F)cc(NC(=O)NC4CC4)c(Cl)c3F)c2cc1C(=O)NC1(C(F)(F)F)CC1 [IIIb-41] | > 5 | > 5 | > 10 |  |  |  |
| COc1cc2nccc(Oc3c(F)cc(NC(=O)NC4CC4)c(Cl)c3F)c2cc1C(=O)NC(CO)C(F)(F)F (stereo not shown) [IIIb-42] | > 5 | > 5 | > 10 |  |  |  |
| COc1cc2nccc(Oc3c(F)cc(NC(=O)NC4CC4)c(Cl)c3F)c2cc1C(=O)NC(C)C#N (stereo not shown) [IIIb-46] | > 5 | > 5 | > 10 |  |  |  |
| COc1cc2nccc(Oc3c(F)cc(NC(=O)NC4CC4)c(Cl)c3F)c2cc1C(=O)NC(C)(C)C#N [IIIb-47] | > 5 | > 5 | > 10 |  |  |  |
| COc1cc2nccc(Oc3c(F)cc(NC(=O)NC4CC4)c(Cl)c3F)c2cc1C(=O)NC1(C#N)CC1 [IIIb-48] | > 5 | > 5 | > 10 |  |  |  |
| COc1cc2nccc(Oc3c(F)cc(NC(=O)NC4CC4)c(Cl)c3F)c2cc1C(=O)NCC1(C#N)CC1 [IIIb-49] | > 5 | > 5 | > 10 |  |  |  |
| COc1cc2nccc(Oc3c(F)cc(NC(=O)NC4CC4)c(Cl)c3F)c2cc1C(=O)NCCN [IIIb-51] | > 5 | > 5 | > 10 |  |  |  |
| COc1cc2nccc(Oc3c(F)cc(NC(=O)NC4CC4)c(Cl)c3F)c2cc1C(=O)Nc1cn[nH]c1 [IIIb-52] | > 5 | > 5 | > 10 |  |  |  |
| COc1cc2nccc(Oc3c(F)cc(NC(=O)NC4CC4)c(Cl)c3F)c2cc1C(=O)Nc1cnn(C)c1 [IIIb-53] | > 5 | > 5 | > 10 |  |  |  |
| COc1cc2nccc(Oc3c(F)cc(NC(=O)NC4CC4)c(Cl)c3F)c2cc1C(=O)Nc1cncn1C [IIIb-54] | > 5 | > 5 | > 10 |  |  |  |
| CN(C)CCOc1cc2nccc(Oc3c(F)cc(NC(=O)NC4CC4)c(Cl)c3F)c2cc1C(N)=O [IIIb-59] | > 5 | > 5 | > 10 |  |  |  |
| CNC(=O)c1cc(Oc2ccc(NC(=O)Nc3ccc(Cl)c(C(F)(F)F)c3)cc2)ccn1 [Sorafenib, sorafenib, reference compound] |  |  |  |  |  | > 10 |

The next lines start with results.

| IC50 [1] [µM] | IC50 [2] [µM] | IC50 [3] [µM] | Compound | MTD at 14 days ([4]; 150 mg/kg, in rats, read-out: MTD toxicity dose) [mg/kg] | MTD ([4]; toxicity study for MTD, species not stated) [mg/kg] | IC50 (hERG potassium channels) [µM] |
| --- | --- | --- | --- | --- | --- | --- |
| > 5 | > 5 | > 10 | CNC(=O)c1cc2c(Oc3c(F)cc(NC(=O)NC4CC4)c(F)c3F)ccnc2cc1OC [IIIb-02] |  |  |  |
| > 5 | > 5 | > 10 | COc1cc2nccc(Oc3c(F)cc(NC(=O)NC4CC4)c(Cl)c3F)c2cc1C(=O)N(C)C [IIIb-03] |  |  |  |
| > 5 | > 5 | > 10 | COc1cc2nccc(Oc3c(F)cc(NC(=O)NC4CC4)c(Cl)c3F)c2cc1C(=O)NC(C)C [IIIb-04] |  |  |  |
| > 5 | > 5 | > 10 | COCCNC(=O)c1cc2c(Oc3c(F)cc(NC(=O)NC4CC4)c(Cl)c3F)ccnc2cc1OC [IIIb-05] |  |  |  |
| > 5 | > 5 | > 10 | COc1cc2nccc(Oc3c(F)cc(NC(=O)NC4CC4)c(F)c3F)c2cc1C(=O)NCC(F)F [IIIb-07] |  |  |  |
| > 5 | > 5 | > 10 | COc1cc2nccc(Oc3c(F)cc(NC(=O)NC4CC4)c(Cl)c3F)c2cc1C(=O)NCCN(C)C [IIIb-10] |  |  |  |
| < 2.5 | < 2.5 | < 5 | COc1cc2nccc(Oc3c(F)cc(NC(=O)NC4CC4)c(F)c3F)c2cc1C(=O)NC1CC1 [IIIb-11] |  |  |  |
| > 5 | > 5 | > 10 | COc1cc2nccc(Oc3c(F)cc(NC(=O)NC4CC4)c(Cl)c3F)c2cc1C(=O)NC1CC1 [IIIb-12] |  |  |  |
| > 5 | > 5 | > 10 | COc1cc2nccc(Oc3c(F)cc(NC(=O)NC4CC4)c(Cl)c3F)c2cc1C(=O)N(C1CC1)C1CC1 [IIIb-13] |  |  |  |
| > 5 | > 5 | > 10 | COc1cc2nccc(Oc3c(F)cc(NC(=O)NC4CC4)c(Cl)c3F)c2cc1C(=O)N1CCC1 [IIIb-14] |  |  |  |
| > 5 | > 5 | > 10 | COc1cc2nccc(Oc3c(F)cc(NC(=O)NC4CC4)c(F)c3F)c2cc1C(=O)NCCO [IIIb-15] |  |  |  |
| > 5 | > 5 | > 10 | COc1cc2nccc(Oc3c(F)cc(NC(=O)NC4CC4)c(Cl)c3F)c2cc1C(=O)N[C@H](C)CO [IIIb-17] |  |  |  |
| > 5 | > 5 | > 10 | COc1cc2nccc(Oc3c(F)cc(NC(=O)NC4CC4)c(Cl)c3F)c2cc1C(=O)N[C@@H](C)CO [IIIb-18] |  |  |  |
| > 5 | > 5 | > 10 | COc1cc2nccc(Oc3c(F)cc(NC(=O)NC4CC4)c(Cl)c3F)c2cc1C(=O)NC(C)(C)CO [IIIb-19] |  |  |  |
| > 5 | > 5 | > 10 | COc1cc2nccc(Oc3c(F)cc(NC(=O)NC4CC4)c(Cl)c3F)c2cc1C(=O)NC(CO)CO [IIIb-20] |  |  |  |
| 2.5 to 5 | 2.5 to 5 | > 10 | COc1cc2nccc(Oc3c(F)cc(NC(=O)NC4CC4)c(Cl)c3F)c2cc1C(=O)NC[C@H](O)CO [IIIb-22] |  |  |  |
| > 5 | > 5 | > 10 | COc1cc2nccc(Oc3c(F)cc(NC(=O)NC4CC4)c(Cl)c3F)c2cc1C(=O)NC1(CO)CC1 [IIIb-23] |  |  |  |
| > 5 | > 5 | > 10 | COc1cc2nccc(Oc3c(F)cc(NC(=O)NC4CC4)c(Cl)c3F)c2cc1C(=O)N1CC(O)C1 [IIIb-24] |  |  |  |
| > 5 | > 5 | > 10 | COc1cc2nccc(Oc3c(F)cc(NC(=O)NC4CC4)c(Cl)c3F)c2cc1C(=O)N1CC[C@@H](O)C1 [IIIb-25] |  |  |  |
| < 2.5 | < 2.5 | < 5 | COc1cc2nccc(Oc3c(F)cc(NC(=O)NC4CC4)c(Cl)c3F)c2cc1C(=O)N1CC[C@H](O)C1 [IIIb-26] |  |  |  |
| > 5 | > 5 | > 10 | COc1cc2nccc(Oc3c(F)cc(NC(=O)NC4CC4)c(Cl)c3F)c2cc1C(=O)N1CCN(C)CC1 [IIIb-27] |  |  |  |
| > 5 | > 5 | > 10 | COc1cc2nccc(Oc3c(F)cc(NC(=O)NC4CC4)c(Cl)c3F)c2cc1C(=O)NC1CCN(C)CC1 [IIIb-28] |  |  |  |
